Source: patent US7622581B2, “6,7,8,9-substituted 1-phenyl-1,5-dihydro-pyrido[3,2-b]indol-2-ones useful as anti-infective pharmaceutical agents” (Tibotec Pharmaceuticals Ltd., priority 2004, dated 2009)

System: HIV
Test: Cellular assay: anti-viral activity in HIV-infected MT4 cells (MTT viability)
Type: cell-based
Details: Human immunodeficiency virus 1, 120 h, five days incubation, MTT readout, negative logarithm of EC50 (protection of 50% of cells from cytopathogenic effect of the virus)
Method: The compounds of the present invention were examined for anti-viral activity in a cellular assay, which was performed according to the following procedure.
HIV- or mock-infected MT4 cells were incubated for five days in the presence of various concentrations of the inhibitor. At the end of the incubation period, the replicating virus in the control cultures has killed all HIV-infected cells in the absence of any inhibitor. Cell viability was determined by measuring the concentration of MTT, a yellow, water soluble tetrazolium dye that is converted to a purple, water insoluble formazan in the mitochondria of living cells only. Upon solubilization of the resulting formazan crystals with isopropanol, the absorbance of the solution was monitored at 540 nm. The values correlate directly to the number of living cells remaining in the culture at the completion of the five day incubation. The inhibitory activity of the compound was monitored on the virus-infected cells and was expressed as EC50 and EC90. These values represent the amount of the compound required to protect 50% and 90%, respectively, of the cells from the cytopathogenic effect of the virus. The toxicity of the compound was measured on the mock-infected cells and was expressed as CC50, which represents the concentration of compound required to inhibit the growth of the cells by 50%. The selectivity index (SI) (ratio CC50/EC50) is an indication of the selectivity of the anti-HIV activity of the inhibitor. Wherever results are reported as e.g. pEC50 or pCC50 values, the result is expressed as the negative logarithm of the result expressed as EC50 or CC50 respectively.

SMILES: Cn1c2ccc(N3CCOCC3)cc2c2c1cc(C#N)c(=O)n2-c1ccc([N+](=O)[O-])cc1 [Compound 3, 8-morpholin-5-methyl-1-(4-nitro-phenyl)-2-oxo-2,5-dihydro-1H-pyrido[3,2-b]indole-3-carbonitrile]
- EC50: 2510 nM

SMILES: CN1CCN(c2ccc3c(c2)c2c(cc(C#N)c(=O)n2-c2ccc([N+](=O)[O-])cc2)n3C)CC1 [Compound 4]
- EC50: 316 nM

SMILES: CN(C)CCCN(C)c1ccc2c(c1)c1c(cc(C#N)c(=O)n1-c1ccc([N+](=O)[O-])cc1)n2C [Compound 7, 8-[(3-Dimethylamino-propyl)-methylamino]-5-methyl-1-(4-nitro-phenyl)-2-oxo-2,5-dihydro-1H-pyrido[3,2-b]indole-3-carbonitrile]
- EC50: 158 nM

SMILES: Cn1c2ccc(N)cc2c2c1cc(C#N)c(=O)n2-c1ccc([N+](=O)[O-])cc1 [Compound 8]
- EC50: 20000 nM

SMILES: COC(=O)c1ccc2c(c1)c1c(cc(C#N)c(=O)n1-c1ccc(N)cc1)n2C [Compound 9]
- EC50: 15800 nM

SMILES: COC(=O)c1ccc2c(c1)c1c(cc(C#N)c(=O)n1-c1ccc([N+](=O)[O-])cc1)n2C [Compound 12]
- EC50: 2000 nM

SMILES: Cn1c2cc(F)c(F)cc2c2c1cc(C#N)c(=O)n2-c1ccc([N+](=O)[O-])cc1 [Compound 15]
- EC50: 398 nM

SMILES: COc1cc2c(cc1F)c1c(cc(C#N)c(=O)n1-c1ccc([N+](=O)[O-])cc1)n2C [Compound 16]
- EC50: 3980 nM

SMILES: CN(C)CCCOc1ccc2c(c1)c1c(cc(C#N)c(=O)n1-c1ccc([N+](=O)[O-])cc1)n2C [Compound 18, 8-[(3-Dimethylamino-propyl)-oxy]-5-methyl-1-(4-nitro-phenyl)-2-oxo-2,5-dihydro-1H-pyrido[3,2-b]indole-3-carbonitrile]
- EC50: 251 nM

SMILES: Cc1ccc2c(c1)c1c(cc(C#N)c(=O)n1-c1ccc([N+](=O)[O-])cc1)n2C [Compound 26]
- EC50: 15800 nM

SMILES: COc1ccc2c(c1)c1c(cc(C#N)c(=O)n1-c1ccc([N+](=O)[O-])cc1)n2C [Compound 27, 8-methoxy-5-methyl-1-(4-nitro-phenyl)-2-oxo-2,5-dihydro-1H-pyrido[3,2-b]indole-3-carbonitrile]
- EC50: 79.4 nM

SMILES: N#Cc1cc2[nH]c3cc(F)c(F)cc3c2n(-c2ccc([N+](=O)[O-])cc2)c1=O [Compound 28]
- EC50: 2510 nM

SMILES: Cn1c2ccc(O)cc2c2c1cc(C#N)c(=O)n2-c1ccc([N+](=O)[O-])cc1 [Compound 29, 8-hydroxy-5-methyl-1-(4-nitro-phenyl)-2-oxo-2,5-dihydro-1H-pyrido[3,2-b]indole-3-carbonitrile]
- EC50: 200 nM

SMILES: Cn1c2cc(O)ccc2c2c1cc(C#N)c(=O)n2-c1ccc([N+](=O)[O-])cc1 [Compound 32]
- EC50: 1260 nM
